Laboratory results from patent US11484511B2, “Pharmaceutical composition comprising THA as effective ingredient for treatment of prostate cancer” (KOREA UNITED PHARM. INC., priority 2018, dated 2022).
“Also recorded” adds a separate entry of the source.

What was measured:
Assay type in all cases: cell-based
[1] = tested on: C4-2 cells; experiment: Real-time cell proliferation analysis (INCUCYTE ZOOM); conditions: THA 3, 10, 30 μM, BI2536 1-100 nM, PPG 3-100 μM, 68 hours
Description: (§1) LnCaP cells, PC3 cells which are androgen receptor (AR)-negative cells, and C4-2 cells showing castration resistance were cultured using an RPMI-1640 medium (Hyclone, Logan, Utah, USA) containing 10% fetal bovine serum (FBS) (Hyclone, Logan, Utah, USA) and 1% penicillin/streptomycin.
(§2) In order to measure cell proliferation, cells were plated onto a 96-well dish (5×10^3 cells/well). After treatment with a drug, the number of live cells was measured at 4-hour intervals using an INCUCYTE™ ZOOM Live Cell Analysis System (Essen Bioscience, Ann Arbor, Mich., USA).
(§3) In order to comparatively observe the cell proliferation inhibitory effects after treatment of prostate cancer cells with THA, a 1 M solution was prepared by diluting 0.168 g of THA (molecular weight: 168.15) with 1 ml DMSO. After the prostate cancer cell lines (LnCaP, PC3, and C4-2) cultured by the method in Example 1-2 were treated with THA (3, 10, and 30 μM), PLK1 inhibitor BI2536 (1, 5, 10, 50, and 100 nM), and purpurogallin (PPG) (3, 10, 30, and 100 μM), the cell proliferation inhibitory effects were comparatively observed by the real-time cell proliferation analysis method for 68 hours according to Example 1-4 during.

[2] = tested on: PC3 cells; experiment: as above; conditions: THA 3, 10, 30 μM, BI2536 1-100 nM, PPG 3-100 μM, 68 hours
Description: as §1, §2, §3

[3] = tested on: C4-2 cells; experiment: Real-time apoptosis analysis (caspase-3/7 fluorescence substrate); conditions: 30 μM THA, 48 hours
Description: (§4) In order to measure apoptosis, cells were plated onto a 96-well dish (5×10^3 cells/well). The INCUCYTE™ ZOOM 96-well Caspase-3/7 apoptosis assay reagent (Essen Bioscience, Ann Arbor, Mich., USA) was pretreated for 3 hours, a drug was treated, and then the fluorescence expression level was measured at 4-hour intervals using an INCUCYTE™ ZOOM Live Cell Analysis System (Essen Bioscience, Ann Arbor, Mich., USA).

[4] = tested on: PC3 cells; experiment: as above; conditions: 30 μM THA, 48 hours
Description: as §4

[5] = tested on: C4-2 cells; experiment: Cleaved caspase-3 (CC3) expression by immunochemical analysis; conditions: for induction of apoptosis: 30 μM THA or 5 nM BI2536, 48 hours
Description: (§5) Sodium dodecyl sulfate-polyacrylamide gel electrophoresis (SDS-PAGE) was performed using a gel electrophoresis apparatus (Mighty Small SE250, Hoefer Scientific Instruments, San Francisco). After a cell lysate fraction was diluted in a sample dilution buffer solution [63 mM Tris (pH 6.8), 10% glycerol, 2% SDS, 0.0013% bromophenol blue, and 5% β-mercaptoethanol], electrophoresis was performed in an electrode buffer solution (15 g of Tris, 72 g of glycerin, and 5 g of SDS were contained in a 1 L solution) using 8 to 12% gel. Proteins were electrophoretically transferred from the gel to a nitrocellulose membrane at 190 mAmps for 70 minutes in a transfer buffer solution (25 mM Tris, 192 mM glycerin, and 20% v/v methanol (pH 8.3)) using a transfer electrophoresis apparatus. After a primary antibody was reacted with the nitrocellulose membrane, a secondary antibody was reacted with horseradish peroxidase-conjugated goat anti-rabbit IgG and horseradish peroxidase-conjugated goat anti-mouse IgG for 6 hours, and color was developed using an ECL chemiluminescence system (Amersham, Gaithersberg, Mass.).
(§6) Further, the degree of apoptosis was observed by confirming the changes in expression of cleaved caspase-3 (CC3) which is an active-type caspase-3 during apoptosis, and first, the C4-2 and PC3 cells cultured by the method in Example 1-2 were plated onto a 6-well plate, and then cultured during 12 hr. And then the cells were treated with 30 μM THA or 5 nM BI2536 for 48 hours. Thereafter, the changes in expression of cleaved caspase-3 (CC3) were observed by the immunochemical analysis method in Example 1-3.

[6] = tested on: PC3 cells; experiment: as above; conditions: for induction of apoptosis: 30 μM THA or 5 nM BI2536, 48 hours
Description: as §5, §6

[7] = tested on: PC3 cells; experiment: Cell cycle analysis (PI / PHH3 flow cytometry); conditions: 30 μM THA, 5 nM BI2536, 24 hours
Description: In order to measure the cell cycle distribution, cells were plated onto a 100 mm dish (5×10^5 cells/well). The cells were fixed with 4° C. PBS, refrigerated in 70% EtOH at 4° C., and cultured for 24 hours. After the 70% EtOH was removed, the PHH3 antibody was treated with a lysing solution composed of 1% bovine serum albumin/0.5% Triton X-100/0.2 mg/ml EDTA to a final concentration of 1:50, and then stained at 37° C. for 15 minutes. Thereafter, the lysing solution was removed, and staining was performed again at 37° C. for 15 minutes using propidium iodide (PI)/Triton X-100/DNAse-free RNAse A. Next, 20,000 cells per experimental group were analyzed using the FACSCALIBUR™ (flow cytometer from BD Biosciences, CA, USA) machine.
PLK1 is a representative G2/M cell cycle regulatory […], and in order to confirm the effect of blocking the cell cycle of prostate cancer cells according to the treatment with THA, the PC3 cells cultured by the method in Example 1-2 were plated onto a 6-well plate, and then 12 hours later, the cells were treated with 30 μM THA and 5 nM BI2536 for 24 hours. Thereafter, changes in the cell distribution of each of the sub-G1, S, and G2/M phases and the proportion of PH3-positive cells (M phase marker) were observed by the method in Example 1-6.

[8] = tested on: LnCaP cells; experiment: Real-time cell proliferation analysis (INCUCYTE ZOOM); conditions: PPG 3-100 μM, 68 hours
Description: as §1, §2, §3

Row | SMILES | cell proliferation inhibitory effect [1] | cell proliferation inhibitory effect [2] | apoptotic index (caspase-3/7 activity) [3] | apoptotic index (caspase-3/7 activity) [4] | induction of apoptosis [5] | expression level of cleaved caspase-3 ([5]; 30 μM THA, 48 hours) | induction of apoptosis [6] | expression level of cleaved caspase-3 ([6]; 30 μM THA, 48 hours) | PHH3-positive cells (M phase marker) compared to the control [7] | cell cycle progression [7] | cell proliferation inhibitory activity [8]
1 | CC(=O)c1c(O)cc(O)cc1O [THA, 2,4,6-trihydroxyacetophenone] | the same cell proliferation inhibitory effects as BI2536; also recorded: selectively inhibits cell proliferation | the same cell proliferation inhibitory effects as BI2536; also recorded: selectively inhibits cell proliferation | significantly increased the apoptotic index | significantly increased the apoptotic index | apoptosis is effectively induced | increased | apoptosis is effectively induced | increased | a significant increase | selectively blocked cell cycle progression at the G2/M phase | 
2 | O=c1c(O)cccc2cc(O)c(O)c(O)c12 [Purpurogallin, purpurogallin, reference compound] | a cell growth inhibitory effect that appeared to be non-selective only at a concentration of 100 uM | limited cell proliferation inhibitory activity |  |  |  |  |  |  |  |  | limited cell proliferation inhibitory activity
3 | CC[C@@H]1C(=O)N(C)c2cnc(Nc3ccc(C(=O)NC4CCN(C)CC4)cc3OC)nc2N1C1CCCC1 [BI2536, reference compound] | selectively inhibits cell proliferation | selectively inhibits cell proliferation |  |  | apoptosis is effectively induced |  | apoptosis is effectively induced |  | a significant increase | inhibition of G2/M phase progression is induced | 
